Data from US6294554A (priority 2000, dated 2001).

Each compound was assayed on acetylcholine (ACh) (assay: In vivo microdialysis, acetylcholine (ACh) levels in striatum). Conditions: 10 mg/kg PO, rat striatum ACh.
Set-up: species or system male Sprague-Dawley Rats
Experimental: Microdialysis Methodology
Surgery: For these studies, male Sprague-Dawley Rats (250-350 g) were anesthetized with sodium pentobarbital (54 mg/kg, ip) and placed on a Kopf sterotaxic apparatus. The skull was exposed and drilled through to the dura at a point 0.2 mm anterior and 3.0 mm lateral to the bregma. At these coordinates, a guide cannula was positioned at the outer edge of the dura through the drilled opening, lowered perpendicularly to a depth of 2.5 mm, and permanently secured with dental cement to bone screws. Following the surgery, rats were given ampicillin (40 mg/kg, ip) and individually housed in modified cages. A recovery period of approximately 3 to 7 days was allowed before the microdialysis procedure was undertaken.
Microdialysis: All of the equipment and instrumentation used to conduct in vivo microdialysis was obtained from Bioanalytical Systems, Inc. (BAS). The microdialysis procedure involved the insertion through the guide cannula of a thin, needle-like perfusable probe (CMA/12, 3 mm×0.5 mm) to a depth of 3 mm in striatum beyond the end of the guide. The probe was connected beforehand with tubing to a microinjection pump (CMA/100). Rats were collared, tethered, and, following probe insertion, were placed in a large, clear, plexiglass bowl with litter material and access to food and water. The probe was perfused at 2, μl/min with Ringer's buffer (NaCl 147 mM; KCl 3.0 mM; CaCl2 1.2 mM; MgCl2 1.0 mM) containing 5.5 mM glucose, 0.2 mM L-ascorbate, and 1 μM neostigmine bromide at pH 7.4). To achieve stable baseline readings, microdialysis was allowed to proceed for 90 minutes prior to the collection of fractions. Fractions (20 μl) were obtained at 10 minute intervals over a 3 hour period using a refrigerated collector (CMA/1 70 or 200). Four to five baseline fractions were collected, following which the drug or combination of drugs to be tested was administered to the animal. Upon completion of the collection, each rat was autopsied to determine accuracy of probe placement.
Acetylcholine (ACh) analysis: The concentration of ACh in collected samples of microdialysate was determined using HPLC/electrochemical detection. Samples were auto-injected (Waters 712 Refrigerated Sample Processor) onto a polymeric analytical HPLC column (BAS, MF-6150) and eluted with 50 mM Na2 HPO4, pH 8.5. To prevent bacterial growth, Kathon CG reagent (0.005%) (BAS) was included in the mobile phase. Eluent from the analytical column, containing separated ACh and choline, was then immediately passed through an immobilized enzyme reactor cartridge (BAS, MF-6151) coupled to the column outlet. […] Integration and quantification of peaks were accomplished using "Maxima" chromatography software (Waters Corporation). […]

| SMILES | Microdialysis Maximum % of baseline |
| --- | --- |
| COc1ccc(S(=O)(=O)c2ccc(C3(C4CCN(C5CCN(C(=O)c6cccc(F)c6N)CC5)CC4)OCCO3)cc2)cc1 [Example 2F] | 186% |
| COc1ccc(S(=O)(=O)c2ccc(C3(C4CCN(C5CCN(C(=O)c6cccc(C)c6N)CC5)CC4)OCCO3)cc2)cc1 [Example 2] | 194% |
| Nc1cc(F)ccc1C(=O)N1CCC(N2CCC(C3(c4ccc(S(=O)(=O)c5cccc(Cl)c5)cc4)OCCO3)CC2)CC1 [Example 3E] | 188% |
| Nc1ccccc1C(=O)N1CCC(N2CCC(Cc3ccc(S(=O)(=O)c4cccc(Cl)c4)cc3)CC2)CC1 [Example 7A] | 150% |
